Series [1] deals with Delta-type opioid receptor (Homo sapiens, UniProt P41143). The series can be described thus: Displacement of [3H]deltrophin-2 from human recombinant DOR expressed in CHO cell membranes incubated for 2 hrs by liquid scintillation counting method.
Series [2] in a line: n-Octanol/water partition coefficient, log P of compound at 50 ug at pH 7.4 measured after 2 mins by RP-HPLC analysis. The series is classed as physicochemical. Particulars: pH 7.4, 2 min.
In series [3] the target is Kappa-type opioid receptor (Homo sapiens, UniProt P41145). Put plainly: Displacement of [3H]U-69593 from human recombinant KOR expressed in CHO cell membranes incubated for 2 hrs by liquid scintillation counting method. In general terms: Displacement assays read how much labelled ligand stays bound in the presence of the test substance.
Sequence of Kappa-type opioid receptor (P41145 whole entry): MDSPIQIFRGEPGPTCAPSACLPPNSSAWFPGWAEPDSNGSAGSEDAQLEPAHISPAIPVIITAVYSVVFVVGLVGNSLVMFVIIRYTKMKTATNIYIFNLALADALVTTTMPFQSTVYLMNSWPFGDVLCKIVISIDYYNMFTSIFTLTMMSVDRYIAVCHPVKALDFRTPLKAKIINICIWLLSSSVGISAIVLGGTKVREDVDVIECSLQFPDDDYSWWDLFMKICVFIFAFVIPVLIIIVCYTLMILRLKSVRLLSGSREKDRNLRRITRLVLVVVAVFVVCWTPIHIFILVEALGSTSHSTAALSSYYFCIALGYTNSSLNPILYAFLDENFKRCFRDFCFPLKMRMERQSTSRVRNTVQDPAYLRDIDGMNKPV
In series [4] the target is T1, Mu-type opioid receptor (Homo sapiens, UniProt P35372). Put plainly: Agonist activity at human recombinant MOR expressed in CHO cells co-expressing C-terminally modified Galphaqi5 assessed as induction of calcium mobilization by Fluo-4AM dye-based fluorescence assay. The series is classed as functional, cell-based. (In general: A change in cytosolic calcium serves as a functional read-out for many receptors and channels.)
T1 sequence (P35372 whole entry): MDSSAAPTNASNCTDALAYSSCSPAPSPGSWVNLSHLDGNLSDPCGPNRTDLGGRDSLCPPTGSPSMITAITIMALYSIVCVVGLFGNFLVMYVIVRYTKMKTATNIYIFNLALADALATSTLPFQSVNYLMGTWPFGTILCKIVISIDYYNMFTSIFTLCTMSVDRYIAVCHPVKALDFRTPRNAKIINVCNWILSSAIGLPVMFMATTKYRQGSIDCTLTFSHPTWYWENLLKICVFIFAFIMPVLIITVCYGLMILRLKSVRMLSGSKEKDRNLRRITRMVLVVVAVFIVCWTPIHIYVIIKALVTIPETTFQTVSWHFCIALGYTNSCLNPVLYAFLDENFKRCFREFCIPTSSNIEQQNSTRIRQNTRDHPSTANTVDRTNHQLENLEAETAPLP

In series [5] the target is T1, Mu-type opioid receptor. Put plainly: Displacement of [3H]DAMGO from human recombinant MOR expressed in CHO cell membranes incubated for 2 hrs by liquid scintillation counting method.
Series [6] concerns the target T1, Mu-type opioid receptor. Put plainly: Agonist activity at human recombinant MOR expressed in CHO cells co-expressing C-terminally modified Galphaqi5 assessed as induction of calcium mobilization by Fluo-4AM dye-based fluorescence assay relative to endomorphin-2. It counts as functional, cell-based.
Series [7] is described as follows: Retention time of the compound by RP-HPLC analysis. It counts as physicochemical.
Series [8] has as its target T1, Mu-type opioid receptor. Put plainly: Potency index, ratio of endomorphin Ki to compound Ki for human recombinant MOR expressed in CHO cell membranes using [3H]DAMGO by radioligand binding assay.

Sequence of Delta-type opioid receptor (P41143 whole entry): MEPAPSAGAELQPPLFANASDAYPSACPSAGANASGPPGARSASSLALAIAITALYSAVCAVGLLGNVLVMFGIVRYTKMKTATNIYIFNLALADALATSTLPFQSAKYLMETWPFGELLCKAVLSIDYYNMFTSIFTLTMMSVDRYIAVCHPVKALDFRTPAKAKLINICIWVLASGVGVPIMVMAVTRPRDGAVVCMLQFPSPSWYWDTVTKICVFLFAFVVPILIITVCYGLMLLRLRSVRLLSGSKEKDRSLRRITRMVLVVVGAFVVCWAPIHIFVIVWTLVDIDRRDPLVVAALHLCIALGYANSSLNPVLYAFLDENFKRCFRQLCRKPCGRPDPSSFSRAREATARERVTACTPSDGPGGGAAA

With `NC(=O)[C@H](Cc1ccccc1)NC(=O)[C@H](Cc1ccccc1)NC(=O)[C@@H]1CCCN1C(=O)[C@@H](N)Cc1cccc(O)c1`, the inhibition constant Ki (as a rule, the dissociation constant of the complex between target and ligand, obtained from inhibition or displacement) came to 12.7 µM in series [1], 9.15 µM in series [3] and 0.0189 µM on Mu-type opioid receptor [5]. Also, the logP (usually the decadic logarithm of the partition coefficient of the neutral form, usually between octanol and water) in series [2] was found to be 1.37. For the same molecule, the EC50 (commonly the concentration at which the effect is half-maximal) on Mu-type opioid receptor [4] was 0.0447 µM. Moreover, the Intrinsic activity at Mu-type opioid receptor [6] came out at 0.87. In series [7], the Retention_time turned out to be 15.168 min.

Turning to `Cc1cc(C[C@H](N)C(=O)N2CCC[C@H]2C(=O)N[C@@H](Cc2ccccc2)C(=O)N[C@@H](Cc2ccccc2)C(N)=O)cc(C)c1O`, the Ki in series [1] amounted to 5.26 µM; in series [3], 4.65 µM; on Mu-type opioid receptor [5], 0.00498 µM. The same molecule registered a logP in series [2] of 1.78. For the same molecule, the 50% effective concentration (EC50) at Mu-type opioid receptor [4] was 0.00955 µM. For the same molecule, the Intrinsic activity on Mu-type opioid receptor [6] was found to be 1.04. The molecule also returned a Retention_time in series [7] of 16.508 min.

With `COc1cc(C[C@H](N)C(=O)N2CCC[C@H]2C(=O)N[C@@H](Cc2ccccc2)C(=O)N[C@@H](Cc2ccccc2)C(N)=O)cc(OC)c1O`, the Ki in series [1] was determined as 10.6 µM; in series [3], 4.48 µM; on Mu-type opioid receptor [5] it was 0.00438 µM. Moreover, the logP in series [2] is 0.67. In addition, the EC50 at Mu-type opioid receptor [4] was 0.00794 µM. For the same molecule, on Mu-type opioid receptor [6], the Intrinsic activity turned out to be 1.1. In series [7], the Retention_time is 14.83 min.

For the molecule `Cc1cc(O)c(Cl)c(C)c1C[C@H](N)C(=O)N1CCC[C@H]1C(=O)N[C@@H](Cc1ccccc1)C(=O)N[C@@H](Cc1ccccc1)C(N)=O`, the Ki in series [1] is 0.9 µM; in series [3], 0.0373 µM; on Mu-type opioid receptor [5], 0.00026 µM. The logP in series [2] is 1.8. The EC50 on Mu-type opioid receptor [4] was 0.000617 µM. The Intrinsic activity on Mu-type opioid receptor [6] was determined as 0.92. The Retention_time in series [7] is 16.122.

Take `NC(=O)[C@H](Cc1ccccc1)NC(=O)[C@H](Cc1ccccc1)NC(=O)[C@@H]1CCCN1C(=O)[C@@H](N)Cc1ccc(O)cc1` [ENDOMORPHIN 2]: in series [2], the logP was found to be 1.13.

As for `Cc1cc(O)cc(C)c1C[C@H](N)C(=O)N1CCC[C@H]1C(=O)N[C@@H](Cc1ccccc1)C(=O)N[C@@H](Cc1ccccc1)C(N)=O`, the Ki in series [1] was determined as 0.283 µM; at Mu-type opioid receptor [5] it was 0.00081 µM. The molecule further showed a logP in series [2] of 1.98. The EC50 on Mu-type opioid receptor [4] is 0.00166 µM. On Mu-type opioid receptor [6], the Intrinsic activity was determined as 0.91. In addition, the Ratio Ki at Mu-type opioid receptor [8] is 4. Moreover, the Retention_time in series [7] is given as 16.484 min.

The values above are taken from ChEMBL document CHEMBL4396910, “Endomorphin-2 analogs containing modified tyrosines: Biological and theoretical investigation of the influence on conformation and pharmacological profile” (Eur J Med Chem, 2019).
